Source: ChEMBL document CHEMBL3044869, “Cross-resistance patterns and fitness in fufenozide-resistant diamondback moth, Plutella xylostella (Lepidoptera: Plutellidae)” (2012)
≈ marks a conversion by molar mass, not a printed value.

Tests used:
Format in all cases: functional
[1] = tested on: Plutella xylostella; assay: Insecticidal activity against third-instar larvae of fufenozide-resistant Plutella xylostella (diamondback moth) assessed as mortality by leaf-dip bioassay method
[2] = tested on: Plutella xylostella; assay: Resistance ratio, ratio of LC50 for third-instar larvae of fufenozide-resistant Plutella xylostella (diamondback moth) to LC50 for third-instar larvae of fufenozide-susceptible Plutella xylostella
[3] = tested on: Plutella xylostella; assay: Insecticidal activity against third-instar larvae of fufenozide-susceptible Plutella xylostella (diamondback moth) assessed as mortality by leaf-dip bioassay method

SMILES | LC50 [1] | RatioLC50 [2] | LC50 [3]
CCOCn1c(-c2ccc(Cl)cc2)c(C#N)c(Br)c1C(F)(F)F [CHLORFENAPYR] | 3.3 µg/mL (≈ 8.1 µM) | 1.11 | 2.96 µg/mL (≈ 7.26 µM)
Cc1cc(C)cc(C(=O)N(NC(=O)c2ccc3c(c2C)OC(C)C3)C(C)(C)C)c1 (centres undefined) [FUXIAN] | 676 µg/mL (≈ 1710 µM) | 302.8 | 2.23 µg/mL (≈ 5.65 µM)
CC[C@H](C)[C@H]1O[C@]2(C=C[C@@H]1C)C[C@@H]1C[C@@H](C/C=C(\C)[C@@H](O[C@H]3C[C@H](OC)[C@@H](O[C@H]4C[C@H](OC)[C@@H](O)[C@H](C)O4)[C@H](C)O3)[C@@H](C)/C=C/C=C3\CO[C@@H]4[C@H](O)C(C)=C[C@@H](C(=O)O1)[C@]34O)O2.CO[C@H]1C[C@H](O[C@H]2[C@H](C)O[C@@H](O[C@@H]3/C(C)=C/C[C@@H]4C[C@@H](C[C@]5(C=C[C@H](C)[C@@H](C(C)C)O5)O4)OC(=O)[C@@H]4C=C(C)[C@@H](O)[C@H]5OC/C(=C\C=C\[C@@H]3C)[C@]54O)C[C@@H]2OC)O[C@@H](C)[C@@H]1O [ABAMECTIN] | 7.87 µg/mL | 7.02 | 1.12 µg/mL
CCc1ccc(C(=O)NN(C(=O)c2cc(C)cc(C)c2)C(C)(C)C)cc1 [TEBUFENOZIDE] | 353 µg/mL (≈ 1000 µM) | 27.9 | 12.6 µg/mL (≈ 35.7 µM)
CCOP(=S)(OCC)Oc1nc(Cl)c(Cl)cc1Cl [CHLORPYRIFOS] | 215 µg/mL (≈ 613 µM) | 1.75 | 122 µg/mL (≈ 349 µM)
CC(C)(C)N(NC(=O)c1ccccc1)C(=O)c1ccccc1 [RH-5849] | 114 µg/mL (≈ 385 µM) | 10.8 | 10.6 µg/mL (≈ 35.8 µM)
CNC(=O)ON=C(C)SC [METHOMYL] | 130 µg/mL (≈ 798 µM) | 1.92 | 67.4 µg/mL (≈ 416 µM)
CC[C@H]1CCC[C@H](O[C@H]2CC[C@H](N(C)C)[C@@H](C)O2)[C@@H](C)C(=O)C2=C[C@@H]3[C@@H](C=C(C)[C@@H]4C[C@@H](O[C@@H]5O[C@@H](C)[C@H](OC)[C@@H](OC)[C@H]5OC)C[C@@H]34)[C@@H]2CC(=O)O1.CC[C@H]1CCC[C@H](O[C@H]2CC[C@H](N(C)C)[C@@H](C)O2)[C@@H](C)C(=O)C2=C[C@@H]3[C@@H](C=C[C@@H]4C[C@@H](O[C@@H]5O[C@@H](C)[C@H](OC)[C@@H](OC)[C@H]5OC)C[C@@H]34)[C@@H]2CC(=O)O1 | 0.439 µg/mL | 2.34 | 0.188 µg/mL
O=C(NC(=O)c1c(F)cccc1F)Nc1cc(Cl)c(OC(F)(F)C(F)F)c(Cl)c1 [HEXAFLUMURON] | 274 µg/mL (≈ 594 µM) | 28.7 | 9.56 µg/mL (≈ 20.7 µM)
O=C(NC(=O)c1c(F)cccc1F)Nc1ccc(Cl)cc1 [DIFLUBENZURON] | 342 µg/mL (≈ 1100 µM) | 17.2 | 19.9 µg/mL (≈ 64.1 µM)
CC1(C)[C@H](C=C(Cl)Cl)[C@H]1C(=O)O[C@@H](C#N)c1cccc(Oc2ccccc2)c1 [BETA-CYPERMETHRIN] | 47.5 µg/mL (≈ 114 µM) | 1.35 | 35.2 µg/mL (≈ 84.6 µM)
COc1cccc(C(=O)NN(C(=O)c2cc(C)cc(C)c2)C(C)(C)C)c1C [METHOXYFENOZIDE] | 276 µg/mL (≈ 748 µM) | 37.6 | 7.33 µg/mL (≈ 19.9 µM)
CCOP(=S)(OCC)O/N=C(\C#N)c1ccccc1 [PHOXIM] | 161 µg/mL (≈ 540 µM) | 1.58 | 102 µg/mL (≈ 341 µM)
